Molecular target: bone resorption (Rattus norvegicus)

| Compound | IC50 [nM] |
| --- | --- |
| O=P(O)(O)C(O)(CCc1cnc[nH]1)P(=O)(O)O | 66.7 |
| O=P(O)(O)C(O)(CCNCCCOc1ccccc1)P(=O)(O)O | 3.25 |
| CN(CCOc1ccc(Cl)cc1)CCC(O)(P(=O)(O)O)P(=O)(O)O | 4.07 |
| O=P(O)(O)C(O)(CCNCCCCc1ccccc1)P(=O)(O)O | 2.69 |
| CCCN(CCCOc1ccccc1)CCC(O)(P(=O)(O)O)P(=O)(O)O | 24 |
| Cc1cccc(OCCCN(C)CCC(O)(P(=O)(O)O)P(=O)(O)O)c1 | 4.27 |
| O=P(O)(O)C(O)(CCNCCCSc1ccccc1)P(=O)(O)O | 18.2 |
| CN(CCCOc1ccc(Cl)cc1)CCC(O)(P(=O)(O)O)P(=O)(O)O | 3.12 |
| O=P(O)(O)C(O)(Cc1ncc[nH]1)P(=O)(O)O | 17.8 |
| CCCCc1cnc(NC(P(=O)(O)O)P(=O)(O)O)s1 | 2.69 |
| CN(CCCOc1ccccc1)CCCC(O)(P(=O)(O)O)P(=O)(O)O | 246 |
| COc1ccc(OCCCN(C)CCC(O)(P(=O)(O)O)P(=O)(O)O)cc1 | 2.82 |
| CCCCN(CCCOc1ccccc1)CCC(O)(P(=O)(O)O)P(=O)(O)O | 1170 |
| O=P(O)(O)C(Nc1ncc[nH]1)P(=O)(O)O | 1950 |
| CN(CCc1ccccc1)CCC(O)(P(=O)(O)O)P(=O)(O)O | 3.92 |
| CN(CCCCCCOc1ccccc1)CCC(O)(P(=O)(O)O)P(=O)(O)O | 17600 |
| CN(CCCOc1ccc(F)cc1)CCC(O)(P(=O)(O)O)P(=O)(O)O | 1.45 |
| CN(CCCc1ccc(Cl)cc1)CCC(O)(P(=O)(O)O)P(=O)(O)O | 1.66 |
| O=P(O)(O)C(Nc1ncc(CCc2ccccc2)s1)P(=O)(O)O | 7.08 |
| CN(CCCCCCc1ccccc1)CCC(O)(P(=O)(O)O)P(=O)(O)O | 3630 |
| O=P(O)(O)C(Nc1nccn1Cc1ccccc1)P(=O)(O)O | 185 |
| Cn1ccnc1CC(O)(P(=O)(O)O)P(=O)(O)O | 1.97 |

| Compound | IC50 [nM] |
| --- | --- |
| CN(CCCSc1ccccc1)CCC(O)(P(=O)(O)O)P(=O)(O)O | 0.618 |
| CN(CCCSc1ccc(Cl)cc1)CCC(O)(P(=O)(O)O)P(=O)(O)O | 18 |
| CN(CCCOc1ccccc1)CCC(O)(P(=O)(O)O)P(=O)(O)O | 1.29 |
| O=P(O)(O)C(Cc1nccs1)P(=O)(O)O | 733 |
| Cc1cnc(NC(P(=O)(O)O)P(=O)(O)O)s1 | 5.13 |
| CN(CCCCOc1ccccc1)CCC(O)(P(=O)(O)O)P(=O)(O)O | 10.1 |
| O=P(O)(O)C(Nc1nccs1)P(=O)(O)O | 18.2 |
| Cc1ncn(CC(O)(P(=O)(O)O)P(=O)(O)O)c1C | 5 |
| O=P(O)(O)C(O)(CCNCCCc1ccccc1)P(=O)(O)O | 55.8 |
| CCN(CCCOc1ccccc1)CCC(O)(P(=O)(O)O)P(=O)(O)O | 72.1 |
| Cn1ccnc1NC(P(=O)(O)O)P(=O)(O)O | 18.5 |
| O=P(O)(O)C(O)(Cn1cncn1)P(=O)(O)O | 2200 |
| Cc1csc(NC(P(=O)(O)O)P(=O)(O)O)n1 | 347 |
| CCc1cnc(NC(P(=O)(O)O)P(=O)(O)O)s1 | 4.82 |
| Cc1nc[nH]c1CC(O)(P(=O)(O)O)P(=O)(O)O | 5.13 |
| CC(C)c1cnc(NC(P(=O)(O)O)P(=O)(O)O)s1 | 632 |
| O=P(O)(O)C(O)(CCNCCc1ccccc1)P(=O)(O)O | 885 |
| CCCc1cnc(NC(P(=O)(O)O)P(=O)(O)O)s1 | 6.15 |
| CN(CCCc1ccccc1)CCC(O)(P(=O)(O)O)P(=O)(O)O | 2.59 |
| O=P(O)(O)C(O)(CCn1ccnc1)P(=O)(O)O | 157 |
| O=C(c1ccccc1)n1ccnc1CC(O)(P(=O)(O)O)P(=O)(O)O | 64.6 |
